Measured values reported in patent US5620676A, “Biologically active ATP analogs” (priority 1995, dated 1997).

Test system: P2X receptor (rat urinary bladder membranes)
Experiment: Displacement of [3H]-α,β-methylene-ATP from rat urinary bladder membranes
Format: binding
Settings: about 10 nM [3H]-α,β-MeATP
Experimental: Certain ATP analogs known to bind to P2Y receptors, as disclosed in Examples 4-9, were tested on membrane preparations of urinary bladder, which is known to include P2X receptors (See, e.g., Lukacsko et al., Eur. J. Pharmacol., 80, 401-406 (1982)). The assay used is predicated on the specific displacement of […] known to bind at the P2X receptor, namely α,β-methylene-ATP.
For this assay, male Wistar rats (200-250 g) were killed by asphyxiation with CO2. […] The pellets were washed and suspended in buffer A and the protein content was determined using the method of Peterson (Anal. Biochem., 83, 346-356 (1977)).
Displacement experiments were carried out by incubating the membrane preparations with about 10 nM [^3 H]-α,β-MeATP and various concentrations of an unlabeled ligand in buffer A at 4° C. for 120 min (final volume 0.5 ml). […] The filters were washed with 2 aliquots of 5 ml ice-cold 5 mM Tris/HCl buffer, pH 7.4, dried under an infrared lamp, and then the radioactivity trapped in the filters was measured in a Beckman SC6100 I scintillation counter with an efficiency of about 56 to 61%. Non-specific binding was determined by including 100 μM β,γ-methylene-ATP in the incubation mixture.

C=CCCCCSc1nc(NC)c2ncn([C@@H]3O[C@H](COP(=O)(O)OP(=O)(O)OP(=O)(O)O)[C@@H](O)[C@H]3O)c2n1 [N^6 -Me-2-(5-hexenyl)-thio-ATP, N^6 -Me-2-(5-hexenylthio)adenosine 5'-triphosphate]
P2X binding in words: two orders of magnitude greater concentration
